From patent US20050054696A1, “Indole compounds and medicinal use thereof” (priority 2001, published 2005)

How the values were obtained:
[1] = molecular target: T1, recombinant human liver glycogen phosphorylase (HLGPa) (Homo sapiens, UniProt P06737); assay: Measurement of liver glycogen phosphorylase activity (enzyme inhibitory activity against HLGPa); assay type: biochemical; settings: Sf9 cell lysate expressing recombinant enzyme; reverse reaction (glycogen synthesis from G1-P), phosphate by malachite green, 60 min room temperature
T1 construct: made in house; host or cells: Sf9 insect cells (unpurified cell lysate used as enzyme solution)
T1 sequence (P06737 1-847): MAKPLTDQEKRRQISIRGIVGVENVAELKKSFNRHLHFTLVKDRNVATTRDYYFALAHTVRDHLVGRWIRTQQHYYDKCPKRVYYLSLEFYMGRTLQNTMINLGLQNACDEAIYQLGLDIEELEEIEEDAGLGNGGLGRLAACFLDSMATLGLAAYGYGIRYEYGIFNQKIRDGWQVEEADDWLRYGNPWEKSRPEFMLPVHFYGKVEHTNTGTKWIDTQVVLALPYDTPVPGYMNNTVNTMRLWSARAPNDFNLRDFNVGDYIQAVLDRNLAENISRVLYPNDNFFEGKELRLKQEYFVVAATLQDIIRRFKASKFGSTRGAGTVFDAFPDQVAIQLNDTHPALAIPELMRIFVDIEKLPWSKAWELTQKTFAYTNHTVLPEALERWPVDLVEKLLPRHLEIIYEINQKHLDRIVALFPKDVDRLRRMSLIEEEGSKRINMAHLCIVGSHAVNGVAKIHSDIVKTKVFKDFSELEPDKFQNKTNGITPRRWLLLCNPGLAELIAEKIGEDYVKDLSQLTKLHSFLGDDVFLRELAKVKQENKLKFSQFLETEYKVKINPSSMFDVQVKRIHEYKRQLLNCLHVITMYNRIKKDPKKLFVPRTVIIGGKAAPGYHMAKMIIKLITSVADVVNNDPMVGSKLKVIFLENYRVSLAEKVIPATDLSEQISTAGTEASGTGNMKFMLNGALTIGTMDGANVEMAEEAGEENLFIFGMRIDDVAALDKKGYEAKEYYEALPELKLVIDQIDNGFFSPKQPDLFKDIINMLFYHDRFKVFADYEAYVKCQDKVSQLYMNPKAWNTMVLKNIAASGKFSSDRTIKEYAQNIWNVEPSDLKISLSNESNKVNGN
Procedure, shortened: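 Activity was run in the reverse, glycogen-synthesis direction, using Sf9 lysate expressing recombinant human liver glycogen phosphorylase (enzyme solution 80 μg/mL protein, pH 7.0). Substrate solution was Tris pH 7.2 with 1.25 mM glucose-1-phosphate, 2.5 mg/ml glycogen and 7.5 mM glucose, reacted 60 min at room temperature. Released phosphate was measured by malachite green A650, with % inhibition taken against DMSO control and no-enzyme blank.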

db/db mice = assay: Measurement of plasma glucose concentration in obesity type diabetes model db/db mice; assay type: in vivo; settings: Mus musculus, po; plasma glucose 1 and 3 hr after administration, after fasting for 4 hr; significant difference vs solvent group (Dunnett's test); read-out: Minimum effective dose db/db mouse
Method: Measurement Method of Plasma Glucose Concentration
Using obesity type diabetes model db/db mice, the effect of the compound (1) of the present invention on glucose concentration in plasma was examined. The glucose concentration in the plasma of db/db mice (10-15 weeks of age) was measured, and the mice were grouped into 5 mice per group such that the average glucose concentration of plasma is leveled. After fasting for 4 hr, the test drug or a solvent (0.5% methyl cellulose) was orally administered to db/db mice, and plasma glucose concentration at 1 and 3 hr after the administration was measured. The hypoglycemic effect of the test drug was evaluated by detecting a significant difference every hour between the solvent administration group and the test drug administration group (Dunnett's test).

SMILES | IC50 [1] [nM] | minimal effective dose (db/db mice) [mg/kg]
O=C(NN1C(=O)N[C@@H](c2ccccc2)C1=O)c1cc2cc(Cl)ccc2[nH]1 (stereo in doubt) [Example 4, N-(2,4-dioxo-5-phenylimidazolidin-3-yl)-5-chloro-1H-indole-2-carboxamide] | 85 | 10
Nc1ccccc1C(=O)NNC(=O)c1cc2cc(Cl)ccc2[nH]1 [Example 1-2, 2-Aminobenzoic acid 2-(5-chloro-1H-indole-2-carbonyl)hydrazide] | 13 | 10
O=C(NNC(=O)c1cc2cc(Cl)ccc2[nH]1)c1c[nH]cn1 [Example 1-81, 1H-imidazole-4-carboxylic acid 2-(5-chloro-1H-indole-2-carbonyl)hydrazide] | 28 | 10
Cc1ccc(C(=O)NNC(=O)c2cc3cc(Cl)ccc3[nH]2)s1 [Example 1-88, 5-methylthiophene-2-carboxylic acid 2-(5-chloro-1H-indole-2-carbonyl)hydrazide] | 20 | 10
Cc1cccc(C(=N)NNC(=O)c2cc3cc(Cl)ccc3[nH]2)c1 [Example 1-134, 5-chloro-1H-indole-2-carboxylic acid 2-(imino-(m-tolyl)-methyl)hydrazide] | 40 | 10
O=C(Nn1c(=O)[nH]c2cccc(Cl)c2c1=O)c1cc2cc(Cl)ccc2[nH]1 [Example 2-17, 5-chloro-1H-indole-2-carboxylic acid (5-chloro-1,2,3,4-tetrahydro-2,4-dioxoquinazolin-3-yl)amide] | 37 | 10
Cc1ccc2[nH]c(C(=O)Nn3c(=O)[nH]c4ccccc4c3=O)cc2c1 [Example 2-23, 5-methyl-1H-indole-2-carboxylic acid (1,2,3,4-tetrahydro-2,4-dioxoquinazolin-3-yl)amide] | 24 | 3
Cc1ccc2[nH]c(C(=O)Nn3c(=O)[nH]c4cc(F)ccc4c3=O)cc2c1 [Example 2-24, 5-methyl-1H-indole-2-carboxylic acid (7-fluoro-1,2,3,4-tetrahydro-2,4-dioxoquinazolin-3-yl)amide] | 17 | 3
O=C(NN1C(=O)CCNC1=O)c1cc2cc(Cl)ccc2[nH]1 [Example 3, N-(2,4-dioxo-perhydropyrimidin-3-yl)-5-chloro-1H-indole-2-carboxamide] | > 100 | 10
O=C(NN1C(=O)N[C@H](c2ccccc2)C1=O)c1cc2cc(Cl)ccc2[nH]1 [Example 4-6, 5-chloro-1H-indole-2-carboxylic acid ((4R)-2,5-dioxo-4-phenylimidazolidin-1-yl)amide] | 65 | 10
O=C(NN1C(=O)NC(c2ccc(F)cc2)C1=O)c1cc2cc(Cl)ccc2[nH]1 (centres unmarked) [Example 4-16, 5-chloro-1H-indole-2-carboxylic acid (2,5-dioxo-4-(4-fluorophenyl)imidazolidin-1-yl)amide] |  | 10
COc1ccc([C@@H]2NC(=O)N(NC(=O)c3cc4cc(Cl)ccc4[nH]3)C2=O)cc1 [Example 4-19, 5-chloro-1H-indole-2-carboxylic acid ((4S)-2,5-dioxo-4-(4-methoxyphenyl)imidazolidin-1-yl)amide] | 96 | 10
Cl.N=C(NNC(=O)c1cc2cc(Cl)ccc2[nH]1)c1ccccc1 [Example 6, 5-chloro-1H-indole-2-carboxylic acid 2-(imino-phenyl-methyl)hydrazide hydrochloride] | 62 | 3
CS(=O)(=O)O.N=C(Cc1ccccc1)NNC(=O)c1cc2cc(Cl)ccc2[nH]1 [Example 6-21] |  | 10

Continued, in another order:

IC50 [1] [nM] | SMILES | minimal effective dose (db/db mice) [mg/kg]
88 | O=C(NNC(=O)c1cc2cc(Cl)ccc2[nH]1)Nc1ccc(F)cc1 [Example 5-7, 5-chloro-1H-indole-2-carboxylic acid 2-((4-fluorophenyl)aminocarbonyl)hydrazide] | 
> 100 | CN(NC(=O)c1cc2cc(Cl)ccc2[nH]1)C(=O)Nc1ccccc1 [Example 5-8, 5-chloro-1H-indole-2-carboxylic acid 2-(anilinocarbonyl)-2-methylhydrazide] | 
> 100 | O=C(NNC(=O)c1cc2cc(Cl)ccc2[nH]1)Nc1ccccc1Cl [Example 5-9, 5-chloro-1H-indole-2-carboxylic acid 2-((2-chloroanilino)carbonyl)hydrazide] | 
> 100 | O=C(NNC(=O)c1cc2cc(Cl)ccc2[nH]1)Nc1cccc(Cl)c1 [Example 5-10, 5-chloro-1H-indole-2-carboxylic acid 2-((3-chloroanilino)carbonyl)hydrazide] | 
> 100 | O=C(NNC(=O)c1cc2cc(Cl)ccc2[nH]1)Nc1ccc(Cl)cc1 [Example 5-11, 5-chloro-1H-indole-2-carboxylic acid 2-((4-chloroanilino)carbonyl)hydrazide] | 
290 | O=C(NNC(=O)C1(c2ccccc2)CC1)c1cc2cc(Cl)ccc2[nH]1 [Example 5-12, 5-chloro-1H-indole-2-carboxylic acid 2-((1-phenylcyclopropane)carbonyl)hydrazide] | 
410 | O=C(NNC(=O)C1(c2ccccc2)CCCC1)c1cc2cc(Cl)ccc2[nH]1 [Example 5-13, 5-chloro-1H-indole-2-carboxylic acid 2-((1-phenylcyclopentane)carbonyl)hydrazide] | 
300 | O=C(NNC(=O)C1(c2ccccc2)CCCCC1)c1cc2cc(Cl)ccc2[nH]1 [Example 5-14, 5-chloro-1H-indole-2-carboxylic acid 2-((1-phenylcyclohexane)carbonyl)hydrazide] | 
63 | CC(C(=O)NNC(=O)c1cc2cc(Cl)ccc2[nH]1)c1ccccc1 (centres unmarked) [Example 5-15, 5-chloro-1H-indole-2-carboxylic acid 2-(2-phenylpropanoyl)hydrazide] | 
> 100 | N[C@H](C(=O)NNC(=O)c1cc2cc(Cl)ccc2[nH]1)c1ccccc1 [Example 5-18, 5-chloro-1H-indole-2-carboxylic acid 2-((2S)-2-amino-2-phenylacetyl)hydrazide] | 
80 | CS(=O)(=O)O.N=C(NNC(=O)c1cc2cc(Cl)ccc2[nH]1)c1ccccc1 [Example 6-17, 5-chloro-1H-indole-2-carboxylic acid 2-(imino-phenyl-methyl)hydrazide methanesulfonate] | 3
84 | CS(=O)(=O)O.N=C(Cc1ccccc1)NNC(=O)c1cc2cc(Cl)ccc2[nH]1 [Example 6-21, 5-chloro-1H-indole-2-carboxylic acid 2-((1-imino-2-phenylethyl)hydrazide methanesulfonate] | 
67 | N=C(NNC(=O)c1cc2cc(Cl)ccc2[nH]1)c1ccc(F)c(F)c1 [Example 6-23, 5-chloro-1H-indole-2-carboxylic acid 2-((3,4-difluorophenyl)-imino-methyl)hydrazide methanesulfonate] | 
160 | COc1ccccc1C(=N)NNC(=O)c1cc2cc(Cl)ccc2[nH]1 [Example 6-24, 5-chloro-1H-indole-2-carboxylic acid 2-(imino-(2-methoxyphenyl)-methyl)hydrazide methanesulfonate] | 
330 | N=C(NNC(=O)c1cc2cc(Cl)ccc2[nH]1)c1c(F)cccc1F [Example 6-25, 5-chloro-1H-indole-2-carboxylic acid 2-((2,6-difluorophenyl)-imino-methyl)hydrazide methanesulfonate] | 
170 | Cc1ccc(C(=N)NNC(=O)c2cc3cc(Cl)ccc3[nH]2)n1C [Example 6-27, 5-chloro-1H-indole-2-carboxylic acid 2-((1,2-dimethyl-1H-pyrrol-5-yl)-imino-methyl)hydrazide methanesulfonate] | 
250 | Cc1ccc2[nH]c(C(=O)NNC(=O)c3ccccc3N)cc2c1 [Example 6-28, 2-aminobenzoic acid 2-(5-methyl-1H-indole-2-carbonyl)hydrazide p-toluenesulfonate] | 
